Source: ChEMBL document CHEMBL1126778, “Adenosine A1 antagonists. 3. Structure-activity relationships on amelioration against scopolamine- or N6-((R)-phenylisopropyl)adenosine-induced cognitive disturbance” (J Med Chem, 1993)

Columns and labels:
Rattus norvegicus [1] = test: Retention time in Scopolamine induced avoidance test (performed in rat) for antagonistic activity after p.o. administration of 0.08 mg/kg; format: functional, organism-based; set-up: dose 0.08 mg/kg
[2] = target: T1, Adenosine receptor A1 (Bos taurus) (UniProt P28190); test: Binding affinity for Adenosine A1 receptor of bovine brain at 10e-5 M with [125I]-N6-aminobenzyladenosine
T1 sequence (whole entry): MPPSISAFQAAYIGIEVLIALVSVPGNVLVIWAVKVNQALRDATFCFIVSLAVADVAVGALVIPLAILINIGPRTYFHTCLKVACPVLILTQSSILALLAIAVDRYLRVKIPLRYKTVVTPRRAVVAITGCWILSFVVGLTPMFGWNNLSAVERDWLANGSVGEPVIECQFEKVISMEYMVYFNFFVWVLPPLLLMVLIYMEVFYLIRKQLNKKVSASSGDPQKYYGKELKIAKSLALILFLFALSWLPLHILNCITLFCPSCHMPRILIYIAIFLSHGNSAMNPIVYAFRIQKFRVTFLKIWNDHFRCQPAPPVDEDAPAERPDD

Mus musculus [3] = test: Retention time in (R)-PIA) induced avoidance test (performed in mice) for antagonistic activity after peroral administration of 0.31 mg/kg; format: functional, organism-based; set-up: dose 0.31 mg/kg
Mus musculus [4] = test: Retention time in (R)-PIA) induced avoidance test (performed in mice) for antagonistic activity after peroral administration of 20 mg/kg; format: functional, organism-based; set-up: dose 20 mg/kg
Mus musculus [5] = test: Retention time in (R)-PIA) induced avoidance test (performed in mice) for antagonistic activity after peroral administration of 0.02 mg/kg
Mus musculus [6] = test: Acquisition time in (R)-PIA) induced avoidance test (performed in mice) for antagonistic activity after peroral administration of 20 mg/kg; format: functional; conditions: route oral
Rattus norvegicus [7] = test: Retention time in Scopolamine induced avoidance test (performed in rat) for antagonistic activity after peroral administration of 1.25 mg/kg; format: functional, organism-based; set-up: dose 1.25 mg/kg
Rattus norvegicus [8] = test: Retention time in Scopolamine induced avoidance test (performed in […]) for antagonistic activity after peroral administration of 5 mg/kg; format: functional, organism-based; set-up: dose 5 mg/kg
Mus musculus [9] = test: Acquisition time in (R)-PIA) induced avoidance test (performed in mice) for antagonistic activity after p.o. administration of 0.31 mg/kg; format: functional; conditions: route oral
Rattus norvegicus [10] = test: Acquisition time in Scopolamine induced avoidance test (performed in rat) for antagonistic activity after p.o. administration of 0.31 mg/kg; format: functional; conditions: route oral
Rattus norvegicus [11] = test: Acquisition time in Scopolamine induced avoidance test (performed in rat) for antagonistic activity after peroral administration of 20 mg/kg; format: functional; conditions: route oral
Rattus norvegicus [12] = test: Retention time in Scopolamine induced avoidance test (performed in rat) for antagonistic activity after peroral administration of 20 mg/kg; format: functional, organism-based; set-up: dose 20 mg/kg
Rattus norvegicus [13] = test: Retention time in Scopolamine induced avoidance test (performed in rat) for antagonistic activity after p.o. administration of 0.31 mg/kg; format: functional, organism-based; set-up: dose 0.31 mg/kg
Mus musculus [14] = test: Retention time in (R)-PIA) induced avoidance test (performed in mice) for antagonistic activity after peroral administration of 0.08 mg/kg; format: functional, organism-based; set-up: dose 0.08 mg/kg
Mus musculus [15] = test: Acquisition time in (R)-PIA) induced avoidance test (performed in mice) for antagonistic activity after p.o. administration of 1.25 mg/kg; format: functional; conditions: route oral
Mus musculus [16] = test: Retention time in (R)-PIA) induced avoidance test (performed in mice) for antagonistic activity after peroral administration of 5 mg/kg; format: functional, organism-based; set-up: dose 5 mg/kg
Mus musculus [17] = test: Acquisition time in (R)-PIA) induced avoidance test (performed in mice) for antagonistic activity after peroral administration of 0.02 mg/kg; conditions: route oral
Adenosine A2 receptor = Adenosine A2 receptor (Homo sapiens, UniProt P29275+P29274); test: Binding affinity towards Adenosine A2 receptor of human platelets with [125I]-N6-aminobenzyladenosine
Rattus norvegicus [18] = test: Acquisition time in Scopolamine induced avoidance test (performed in rat) for antagonistic activity after p.o. administration of 0.08 mg/kg; format: functional; conditions: route oral
Mus musculus [19] = test: Retention time in (R)-PIA) induced avoidance test (performed in mice) for antagonistic activity after p.o. administration of 1.25 mg/kg; format: functional, organism-based; set-up: dose 1.25 mg/kg
Mus musculus [20] = test: Acquisition time in (R)-PIA) induced avoidance test (performed in mice) for antagonistic activity after peroral administration of 5 mg/kg; format: functional; conditions: route oral
Rattus norvegicus [21] = test: Acquisition time in Scopolamine induced avoidance test (performed in rat) for antagonistic activity after peroral administration of 1.25 mg/kg; format: functional; conditions: route oral
Mus musculus [22] = test: Acquisition time in (R)-PIA) induced avoidance test (performed in mice) for antagonistic activity after peroral administration of 0.08 mg/kg; format: functional; conditions: route oral
Rattus norvegicus [23] = test: Acquisition time in Scopolamine induced avoidance test (performed in rat) for antagonistic activity after p.o. administration of 5 mg/kg; format: functional; conditions: route oral
Rattus norvegicus [24] = test: Retention time in Scopolamine induced avoidance test (performed in rat) for antagonistic activity after peroral administration of 20 mg/kg (n=9); format: functional, organism-based; set-up: dose 20 mg/kg
Mus musculus [25] = test: Retention time in (R)-PIA) induced avoidance test (performed in mice) for antagonistic activity after peroral administration of 1.25 mg/kg; format: functional, organism-based; set-up: dose 1.25 mg/kg
Rattus norvegicus [26] = test: Retention time in Scopolamine induced avoidance test (performed in rat) for antagonistic activity after peroral administration of 0.08 mg/kg; format: functional, organism-based; set-up: dose 0.08 mg/kg

CCCn1c(=O)c2nc(C3CCCC3)[nH]c2n(CCc2ccc(NC(C)=O)cc2)c1=O
Retention time (Rattus norvegicus [1]): 175 s | inhibition [2]: 66% | Retention time (Mus musculus [3]): 38.7 s | Retention time (Mus musculus [4]): 32.2 s | Retention time (Mus musculus [5]): 137 s | Acquisition time (Mus musculus [6]): 20.5 s | Retention time (Rattus norvegicus [7]): 170 s | Retention time (Rattus norvegicus [8]): 187 s | Acquisition time (Mus musculus [9]): 18.9 s | Acquisition time (Rattus norvegicus [10]): 15.5 s | Acquisition time (Rattus norvegicus [11]): 13.8 s | Retention time (Rattus norvegicus [12]): 116 s | Retention time (Rattus norvegicus [13]): 130 s | Retention time (Mus musculus [14]): 75.4 s | Acquisition time (Mus musculus [15]): 18.8 s | Retention time (Mus musculus [16]): 47.5 s | Acquisition time (Mus musculus [17]): 12.2 s | Ki (Adenosine A2 receptor): > 100 µM | Acquisition time (Rattus norvegicus [18]): 15.4 s | Retention time (Mus musculus [19]): 20 s | Acquisition time (Mus musculus [20]): 27.8 s | Acquisition time (Rattus norvegicus [21]): 12.6 s | Acquisition time (Mus musculus [22]): 23.9 s | Acquisition time (Rattus norvegicus [23]): 15.9 s

CCCn1c(=O)c2c(nc(/C=C/c3ccc(OC)c(OC)c3)n2C)n(CCC)c1=O
Retention time (Rattus norvegicus [1]): 31.1 s | Retention time (Rattus norvegicus [24]): 15.6 s | Retention time (Mus musculus [3]): 42.4 s | Retention time (Mus musculus [4]): 92.4 s | Acquisition time (Mus musculus [6]): 31.2 s | Retention time (Rattus norvegicus [7]): 20.3 s | Retention time (Rattus norvegicus [8]): 4.9 s | Acquisition time (Mus musculus [9]): 22.7 s | Acquisition time (Rattus norvegicus [10]): 11.8 s | Acquisition time (Rattus norvegicus [11]): 22.2 s | Retention time (Rattus norvegicus [13]): 12.9 s | Acquisition time (Mus musculus [15]): 25.3 s | Retention time (Mus musculus [16]): 37.5 s | Acquisition time (Rattus norvegicus [18]): 14.9 s | Retention time (Mus musculus [19]): 65.3 s | Acquisition time (Mus musculus [20]): 19.8 s | Acquisition time (Rattus norvegicus [21]): 10.1 s | Acquisition time (Rattus norvegicus [23]): 24.4 s

Cn1c(=O)c2[nH]cnc2n(C)c1=O
Retention time (Mus musculus [25]): 166 s | Retention time (Mus musculus [3]): 113 s | Retention time (Rattus norvegicus [7]): 10.9 s | Retention time (Rattus norvegicus [12]): 14.6 s | Retention time (Rattus norvegicus [13]): 31.2 s | Retention time (Mus musculus [14]): 85.4 s | Retention time (Mus musculus [16]): 104 s | Retention time (Rattus norvegicus [26]): 45.8 s
